From patent US9119858B2, “Compositions and methods for treating or preventing anthracycline induced cardiotoxicity” (Genesys Research Institute, priority 2012, dated 2015)
Where two headings read alike, the source gives them in different places.

Tests used:
[1] = tested on: doxorubicin injured mice; conditions: ten weeks after initiation of doxorubicin treatment
Experimental: (§1) After the completion of doxorubicin treatment, mice were subsequently treated with either Lapatinib alone (100 mg/kg, oral gavage, daily) or Rapamycin alone (6 mg/kg, i.p., daily). Survival was monitored. Cardiac function was assessed by hemodynamic measurements.

[2] = tested on: doxorubicin treated mice
[3] = tested on: doxorubicin injured mice; assay: Cardiac output by hemodynamic measurements in doxorubicin injured mice treated with Lapatinib or Rapamycin; assay type: in vivo
Experimental: as §1

[4] = tested on: doxorubicin treated mice; assay: Echocardiography of doxorubicin and doxorubicin+lapatinib treated mice; conditions: FIG. 3
Experimental: (§2) Female FVB/n mice between 10 and 12 weeks old were treated with doxorubicin (2 mg/kg) by intraperitoneal injection (i.p.) twice a week for 7 weeks. […] After completion of the doxorubicin treatment cycle, the mice were subsequently treated with various doses of lapatinib (25, 50, and 100 mg/kg, given by oral gavage, daily) or with vehicle control.
(§3) Cardiac function of the doxorubicin and doxorubicin+lapatinib treated mice was evaluated by echocardiography.

[5] = tested on: doxorubicin treated mice; assay: Hemodynamic measurements (dP/dtmax, dP/dtmin) in doxorubicin and doxorubicin+lapatinib treated mice; conditions: FIG. 4
Experimental: as §2, §3

[6] = tested on: doxorubicin+BEZ235 treated mice; assay: Echocardiography and heart/lung weight ratios in mice co-treated with doxorubicin, BEZ235 and lapatinib; conditions: lapatinib co-treatment of doxorubicin+BEZ235 treated mice; FIG. 6
Experimental: FVB/n female mice were treated with doxorubicin (2 mg/kg, i.p.) twice a week, PI3 kinase-mTOR inhibitor BEZ235 (35-50 mg/kg, oral, daily) and lapatinib (25, 50 or 100 mg/kg, oral, daily). Cardiac function was monitored by echocardiography.

[7] = nine weeks after initiation of doxorubicin treatment, doxorubicin treated versus control mice
[8] = doxorubicin treated vs. control mice
[9] = three weeks after initiation of lapatinib treatment, doxorubicin+lapatinib vs doxorubicin treated mice
[10] = doxorubicin+lapatinib treated vs control mice

CO[C@H]1C[C@@H]2CC[C@@H](C)[C@@](O)(O2)C(=O)C(=O)N2CCCC[C@H]2C(=O)O[C@H]([C@H](C)C[C@@H]2CC[C@@H](O)[C@H](OC)C2)CC(=O)[C@H](C)/C=C(\C)[C@@H](O)[C@@H](OC)C(=O)[C@H](C)C[C@H](C)/C=C/C=C/C=C/1C [Rapamycin]
survival ([1]; Rapamycin 6 mg/kg i.p. daily after doxorubicin): 63%

COc1cccc2c1C(=O)c1c(O)c3c(c(O)c1C2=O)C[C@@](O)(C(=O)CO)C[C@@H]3O[C@H]1C[C@H](N)[C@H](O)[C@H](C)O1 [doxorubicin]
survival ([2]; 64 days after initiation of doxorubicin treatment, doxorubicin 2 mg/kg i.p. twice a week for 7 weeks, then vehicle control, female FVB/n mice): 68% | survival ([2]; 70 days after initiation of doxorubicin treatment, doxorubicin 2 mg/kg i.p. twice a week for 7 weeks, then vehicle control): 34% | survival ([1]; Solvent treated doxorubicin injured mice (doxorubicin 2 mg/kg i.p. twice a week for 7 weeks)): 43% | cardiac output ([3]; Solvent treated doxorubicin injured mice vs. non-treated control mice, ten weeks): significantly decreased | EF % [4, 7]: decreased | ESV [4, 7]: significantly increased | dP/dtmax [5, 8]: significantly decreased | dP/dtmin [5, 8]: significantly decreased

CS(=O)(=O)CCNCc1ccc(-c2ccc3ncnc(Nc4ccc(OCc5cccc(F)c5)c(Cl)c4)c3c2)o1 [lapatinib, N-[3-chloro-4-[(3-fluorophenyl)methoxy]phenyl]-6-[5-[(2-methylsulfonylethylamino)methyl]-2-furyl]quinazolin-4-amine]
survival ([2]; 64 days after initiation of doxorubicin treatment, lapatinib 25 mg/kg oral gavage daily after the doxorubicin cycle): 100% | survival ([2]; 64 days after initiation of doxorubicin treatment, lapatinib 50 mg/kg oral gavage daily after the doxorubicin cycle): 83% | survival ([2]; 64 days after initiation of doxorubicin treatment, lapatinib 100 mg/kg oral gavage daily after the doxorubicin cycle): 71% | survival ([2]; 70 days after initiation of doxorubicin treatment, lapatinib 100 mg/kg oral gavage daily after the doxorubicin cycle): 55% | survival of doxorubicin treated mice (FIG. 1) ([2]; lapatinib 25, 50 and 100 mg/kg oral gavage daily vs vehicle control): improved survival | survival ([1]; Lapatinib 100 mg/kg oral gavage daily after doxorubicin): 71% | cardiac output ([3]; Lapatinib (100 mg/kg oral daily) treated doxorubicin injured mice vs. non-treated control mice): No difference | EF % [4, 9]: reversed these effects | ESV [4, 9]: reversed these effects | dP/dtmax [5, 10]: not different | dP/dtmin [5, 10]: not different | EF % [6]: reversed these effects | end-diastolic volume (EDV) [6]: reversed these effects | end-systolic volume (ESV) [6]: reversed these effects | heart weight to body weight ratio (HW/BW) [6]: reversed these effects | lung to body weight ratio [6]: reversed these effects | relative wall thickness (RWth) [6]: reversed these effects
